Literature values, collected in patent US7838668B2, “Method for crystallizing sucralose” (JK Sucralose Inc., priority 2006, dated 2010).

Details: relative to sucrose; background statement, no test described

For `OC[C@H]1O[C@H](O[C@]2(CCl)O[C@H](CCl)[C@@H](O)[C@@H]2O)[C@H](O)[C@@H](O)[C@H]1Cl` [sucralose], the sweetness is listed as 600 times of sucrose.
